Measurements published in PubChem BioAssay AID248 (DTP/NCI, 2004).
Values joined by “and” are separate entries in the source; they are usually repeats but may differ in a detail not shown here. Equal values may be shown once. Toxic doses and inconclusive results are not listed. No stated cut-off is given here; in the data, active means T/C of 150% or more; inactive means T/C below 125%.

Tested on: L1210 leukemia ip in BDF1 mice, survival T/C
Assay: NCI In Vivo Anticancer Drug Screen. Data for tumor model L1210 Leukemia (intraperitoneal) in B6D2F1 (BDF1) mice
Conditions: higher = longer survival
Method in brief: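 Mice bearing the transplanted tumor received compound or vehicle. Survival of the treated group was divided by that of the vehicle-treated control group to give the ratio.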

[1] = endpoint: mean survival time, dose: 100.0 mg/kg/injection, schedule: Q01DX001 (ip), vehicle: carboxymethylcellulose (CMC)
[2] = endpoint: mean survival time, dose: 100.0 mg/kg/injection, schedule: Q01DX001 (ip), vehicle: saline
[3] = endpoint: mean survival time, dose: 200.0 mg/kg/injection, schedule: Q01DX001 (ip), vehicle: carboxymethylcellulose (CMC)
[4] = endpoint: mean survival time, dose: 200.0 mg/kg/injection, schedule: Q01DX001 (ip), vehicle: saline
[5] = endpoint: mean survival time, dose: 400.0 mg/kg/injection, schedule: Q01DX001 (ip), vehicle: saline
[6] = endpoint: mean survival time, dose: 100.0 mg/kg/injection, schedule: Q04DX003 (ip), vehicle: Klucel (hydroxypropylcellulose) (HPC)
[7] = endpoint: mean survival time, dose: 200.0 mg/kg/injection, schedule: Q04DX003 (ip), vehicle: Klucel (hydroxypropylcellulose) (HPC)
[8] = endpoint: mean survival time, dose: 400.0 mg/kg/injection, schedule: Q04DX003 (ip), vehicle: Klucel (hydroxypropylcellulose) (HPC)
[9] = endpoint: mean survival time, dose: 100.0 mg/kg/injection, schedule: Q01DX001 (ip), vehicle: saline with Tween-80
[10] = endpoint: mean survival time, dose: 200.0 mg/kg/injection, schedule: Q01DX001 (ip), vehicle: saline with Tween-80
[11] = endpoint: mean survival time, dose: 400.0 mg/kg/injection, schedule: Q01DX001 (ip), vehicle: saline with Tween-80
[12] = endpoint: mean survival time, dose: 100.0 mg/kg/injection, schedule: Q04DX003 (ip), vehicle: saline
[13] = endpoint: mean survival time, dose: 200.0 mg/kg/injection, schedule: Q04DX003 (ip), vehicle: saline
[14] = endpoint: mean survival time, dose: 100.0 mg/kg/injection, schedule: Q04DX003 (ip), vehicle: saline with Tween-80
[15] = endpoint: mean survival time, dose: 100.0 mg/kg/injection, schedule: Q01DX009 (ip), vehicle: Klucel (hydroxypropylcellulose) (HPC)
[16] = endpoint: mean survival time, dose: 200.0 mg/kg/injection, schedule: Q01DX009 (ip), vehicle: Klucel (hydroxypropylcellulose) (HPC)
[17] = endpoint: mean survival time, dose: 400.0 mg/kg/injection, schedule: Q01DX009 (ip), vehicle: Klucel (hydroxypropylcellulose) (HPC)
[18] = endpoint: mean survival time, dose: 200.0 mg/kg/injection, schedule: Q04DX003 (ip), vehicle: saline with Tween-80
[19] = endpoint: mean survival time, dose: 400.0 mg/kg/injection, schedule: Q04DX003 (ip), vehicle: saline with Tween-80

Measured: T/C

Nc1[nH]c(=O)ncc1F
inactive: [1] 97 % of control | [2] 102 % of control | endpoint: mean survival time, dose: 100.0 mg/kg/injection, schedule: Q01DX009 (ip), vehicle: carboxymethylcellulose (CMC) 98 % of control | [3] 104 % of control | [4] 102 % of control | endpoint: mean survival time, dose: 200.0 mg/kg/injection, schedule: Q01DX009 (ip), vehicle: carboxymethylcellulose (CMC) 103 % of control | [5] 100 % of control | endpoint: mean survival time, dose: 400.0 mg/kg/injection, schedule: Q01DX009 (ip), vehicle: carboxymethylcellulose (CMC) 103 % of control | endpoint: mean survival time, dose: 800.0 mg/kg/injection, schedule: Q01DX001 (ip), vehicle: saline 102 % of control | endpoint: mean survival time, dose: 800.0 mg/kg/injection, schedule: Q01DX009 (ip), vehicle: carboxymethylcellulose (CMC) 104 % of control | endpoint: median survival time, dose: 31.2 mg/kg/injection, schedule: Q03HX024 (ip), vehicle: water 100 % of control | endpoint: median survival time, dose: 62.5 mg/kg/injection, schedule: Q03HX024 (ip), vehicle: water 100 % of control | endpoint: median survival time, dose: 125.0 mg/kg/injection, schedule: Q03HX024 (ip), vehicle: water 100 % of control | endpoint: median survival time, dose: 250.0 mg/kg/injection, schedule: Q03HX024 (ip), vehicle: water 105 % of control | endpoint: median survival time, dose: 250.0 mg/kg/injection, schedule: Q04DX003 (ip), vehicle: water 100 % of control | endpoint: median survival time, dose: 500.0 mg/kg/injection, schedule: Q04DX003 (ip), vehicle: water 100 % of control | endpoint: median survival time, dose: 1000.0 mg/kg/injection, schedule: Q04DX003 (ip), vehicle: water 100 % of control

Cc1ccc[n+](Cc2ccccc2)c1
inactive: endpoint: mean survival time, dose: 12.5 mg/kg/injection, schedule: Q04DX003 (ip), vehicle: saline 98 % of control | endpoint: mean survival time, dose: 25.0 mg/kg/injection, schedule: Q04DX003 (ip), vehicle: saline 101 % of control | endpoint: mean survival time, dose: 50.0 mg/kg/injection, schedule: Q04DX003 (ip), vehicle: saline 97 % of control

COC1=NS(=O)(=O)N=C(N(C)C)O1
inactive: endpoint: mean survival time, dose: 100.0 mg/kg/injection, schedule: Q01DX001 (ip), vehicle: Klucel (hydroxypropylcellulose) (HPC) 105 % of control | [6] 96 % of control | endpoint: mean survival time, dose: 200.0 mg/kg/injection, schedule: Q01DX001 (ip), vehicle: Klucel (hydroxypropylcellulose) (HPC) 105 % of control | [7] 96 % of control | endpoint: mean survival time, dose: 400.0 mg/kg/injection, schedule: Q01DX001 (ip), vehicle: Klucel (hydroxypropylcellulose) (HPC) 103 % of control | [8] 97 % of control

O=C(O)c1ccc(OCc2ccccc2)c(Br)c1
inactive: [9] 97 % of control | [10] 104 % of control | [11] 98 % of control

CC(C)N=Cc1cc(Br)cc(Br)c1O.CC(C)N=Cc1cc(Br)cc(Br)c1O.[Co]
inactive: [12] 88 % of control | [13] 91 % of control | endpoint: mean survival time, dose: 400.0 mg/kg/injection, schedule: Q04DX003 (ip), vehicle: saline 105 % of control

O=C(/C=C/c1ccc([N+](=O)[O-])cc1)Nc1cccc(S(=O)(=O)F)c1
inactive: [2] 107 % of control | [4] 112 % of control | [5] 101 % of control

c1ccc(CNc2cccc3c(NCc4ccccc4)cccc23)cc1
inactive: [9] 87 % of control | endpoint: mean survival time, dose: 100.0 mg/kg/injection, schedule: Q01DX009 (ip), vehicle: saline with Tween-80 86 % of control | [14] 88 % of control | [10] 95 % of control | endpoint: mean survival time, dose: 200.0 mg/kg/injection, schedule: Q01DX009 (ip), vehicle: saline with Tween-80 93 % of control | [11] 88 % of control | endpoint: mean survival time, dose: 400.0 mg/kg/injection, schedule: Q01DX009 (ip), vehicle: saline with Tween-80 95 % of control

CNC(=O)C1C(c2ccc(OC)cc2)C1c1ccc(OC)cc1 (stereo not drawn)
inactive: endpoint: mean survival time, dose: 12.5 mg/kg/injection, schedule: Q04DX002 (ip), vehicle: Klucel (hydroxypropylcellulose) (HPC) 92 % of control | endpoint: mean survival time, dose: 25.0 mg/kg/injection, schedule: Q04DX002 (ip), vehicle: Klucel (hydroxypropylcellulose) (HPC) 92 % of control | endpoint: mean survival time, dose: 50.0 mg/kg/injection, schedule: Q04DX002 (ip), vehicle: Klucel (hydroxypropylcellulose) (HPC) 95 % of control

C=CCC(CC)C(=O)NC(=O)N1CCCc2ccccc21 (stereo not drawn)
inactive: [9] 91 % of control | [10] 86 % of control

Cc1ccc(C(=O)N/N=C/c2c(O)ccc3ccccc23)cc1
inactive: endpoint: mean survival time, dose: 100.0 mg/kg/injection, schedule: Q04DX002 (ip), vehicle: Klucel (hydroxypropylcellulose) (HPC) 89 % of control | endpoint: mean survival time, dose: 200.0 mg/kg/injection, schedule: Q04DX002 (ip), vehicle: Klucel (hydroxypropylcellulose) (HPC) 89 % of control | endpoint: mean survival time, dose: 400.0 mg/kg/injection, schedule: Q04DX002 (ip), vehicle: Klucel (hydroxypropylcellulose) (HPC) 96 % of control

CCCCCCOC(=O)/C=C(/C)OCCCCCC
inactive: endpoint: mean survival time, dose: 100.0 mg/kg/injection, schedule: Q01DX009 (ip), vehicle: saline 97 % of control | [12] 94 % of control | endpoint: mean survival time, dose: 200.0 mg/kg/injection, schedule: Q01DX009 (ip), vehicle: saline 95 % of control | [13] 96 % of control | endpoint: mean survival time, dose: 400.0 mg/kg/injection, schedule: Q01DX009 (ip), vehicle: saline 92 % of control

CN(CCN(N=O)C(N)=O)[N+](=O)[O-]
inactive: endpoint: mean survival time, dose: 100.0 mg/kg/injection, schedule: Q04DX002 (ip), vehicle: other 98 % of control | endpoint: mean survival time, dose: 200.0 mg/kg/injection, schedule: Q04DX002 (ip), vehicle: other 94 % of control | endpoint: mean survival time, dose: 400.0 mg/kg/injection, schedule: Q04DX002 (ip), vehicle: other 109 % of control

CC(=O)Nc1ccc(S(N)(=O)=O)cc1
inactive: endpoint: mean survival time, dose: 50.0 mg/kg/injection, schedule: Q01DX001 (ip), vehicle: carboxymethylcellulose (CMC) 95 % of control | [1] 101 % of control | [15] 103 % of control | [3] 95 % of control | endpoint: mean survival time, dose: 400.0 mg/kg/injection, schedule: Q01DX001 (ip), vehicle: carboxymethylcellulose (CMC) 97 % of control

C=C(C)C1Cc2c(ccc3c(=O)c4c(oc23)C(O)Oc2cc(OC)c(OC)cc2-4)O1 (stereo not drawn)
inactive: [15] 93 % of control | [16] 95 % of control | [17] 97 % of control

Cc1cccc(NC(=O)c2cccc(C(=O)Nc3cccc(C)c3C)c2)c1C
inactive: [15] 96 % of control | [6] 88 % of control | [16] 100 % of control | [7] 88 % of control | [17] 96 % of control | [8] 93 % of control

O=C(c1ccccc1)c1cccnc1
inactive: [14] 101 % of control | [18] 101 % of control | [19] 104 % of control

CS(=O)(=O)OCCC(=O)NCNC(=O)CCOS(C)(=O)=O
inactive: endpoint: mean survival time, dose: 10.6 mg/kg/injection, schedule: Q01DX Z (ip), vehicle: carboxymethylcellulose (CMC) 117 % of control and 120 % of control | endpoint: mean survival time, dose: 16.0 mg/kg/injection, schedule: Q01DX Z (ip), vehicle: carboxymethylcellulose (CMC) 109 % of control | endpoint: mean survival time, dose: 18.8 mg/kg/injection, schedule: Q01DX Z (ip), vehicle: carboxymethylcellulose (CMC) 124 % of control | endpoint: mean survival time, dose: 24.0 mg/kg/injection, schedule: Q01DX Z (ip), vehicle: carboxymethylcellulose (CMC) 123 % of control | endpoint: mean survival time, dose: 28.0 mg/kg/injection, schedule: Q01DX Z (ip), vehicle: carboxymethylcellulose (CMC) 124 % of control | endpoint: mean survival time, dose: 54.0 mg/kg/injection, schedule: Q01DX Z (ip), vehicle: carboxymethylcellulose (CMC) 122 % of control | endpoint: mean survival time, dose: 81.0 mg/kg/injection, schedule: Q01DX Z (ip), vehicle: carboxymethylcellulose (CMC) 117 % of control | endpoint: mean survival time, dose: 84.0 mg/kg/injection, schedule: Q01DX Z (ip), vehicle: carboxymethylcellulose (CMC) 109 % of control | endpoint: mean survival time, dose: 90.0 mg/kg/injection, schedule: Q01DX Z (ip), vehicle: carboxymethylcellulose (CMC) 121 % of control | endpoint: mean survival time, dose: 95.0 mg/kg/injection, schedule: Q01DX Z (ip), vehicle: carboxymethylcellulose (CMC) 119 % of control

Nc1nc2c([nH]c(=O)n2C2OC(CO)C(O)C2O)c(=O)n1N (stereo not drawn)
inactive: [2] 102 % of control | [4] 101 % of control | [5] 96 % of control

O=C(NC1CCCCC1)c1csnn1
inactive: endpoint: mean survival time, dose: 75.0 mg/kg/injection, schedule: Q01DX001 (ip), vehicle: other 89 % of control | endpoint: mean survival time, dose: 150.0 mg/kg/injection, schedule: Q01DX001 (ip), vehicle: other 97 % of control

CCCCOc1ccc(NC(=O)N(C)C)cn1
inactive: [14] 94 % of control | [18] 96 % of control | [19] 87 % of control
